Consider 14 compounds from US8586613B2, “Pyridinium and quinolinium derivatives” (Universidad de Granada, priority 2004, dated 2013).

Where two headings read alike, the source gives them in different places.

For one assay, the system named is HT-29 cells. The experiment in a line: HT-29 cell proliferation assay (Crystal Violet). Format: cell-based, human. To be noted: six days of treatment. As to the method: The HT-29 cells were seeded in 24-well plates (35×10^3 cells/well) and were incubated for 24 hours. Then the cells were treated with different concentrations of ChoK inhibitors in the usual culture medium. Three days later, the wells were aspirated and both fresh medium and more amount of drug were added, and the cells were maintained for three more days. The quantification of the remaining cells in each well was carried out by means of the Crystal Violet method [Gillies, R. J., Didier, N., Denton, M. Anal. Biochem. 159, 109-113 (1986)], with some modifications [Hernández-Alcoceba, R., Saniger, L., Campos, J., Núñez, M. C., Khaless, F., Gallo, M. Á., Espinosa, A., Lacal, J. C. Oncogene, 15, 2289-2301 (1997)]. Briefly, the cells were washed with TD buffer and fixed with 1% glutaraldehyde for 15 minutes. After washing again with TD, the cell nuclei were coloured with 0.1% Crystal Violet for at least 30 minutes and washed three times with distilled water. The adsorbed colouring was resuspended in 10% acetic acid and the absorbance at 595 nm was determined in a spectrometer. […] This value determined by iterative curve adjustment. Two values are determined for each point of the curve, the experiment was repeated two or three times and the mean values were estimated. In the few cases in which the two values differed more than 50%, a third experiment was carried out to determine the real value. The IC50 value as a potency measurement is used to relate the biological activity of the compounds with their chemical structure.

A further assay deals with T1, Human ChoK (Homo sapiens, UniProt P35790).
T1 construct: made in house; host or cells: E. coli
As to the kind of experiment: Ex vivo assay of the activity of human ChoK (recombinant choline kinase expressed in E. coli). It is filed as biochemical. As to the method:
Recombinant choline kinase expressed in E. coli in the buffer assay (100 mM Tris-HCl pH 8.0, 100 mM MgCl2, 10 mM ATP and 200 μM of choline in the presence of methyl[^14C]-choline chloride (50-60 μCi/mmol)) was used for the ex vivo assays. […] The samples were washed with diethyl ether saturated with water and were lyophilized. The hydrophilic choline derivatives were resolved in thin layer chromatography plates according to a described process [Ramírez, A., Penalva, V., Lucas, L., Lacal, J. C.

The mark [1] stands for this setting: recombinant human ChoK, 37° C., 30 minutes.

T1 sequence (P35790 whole entry): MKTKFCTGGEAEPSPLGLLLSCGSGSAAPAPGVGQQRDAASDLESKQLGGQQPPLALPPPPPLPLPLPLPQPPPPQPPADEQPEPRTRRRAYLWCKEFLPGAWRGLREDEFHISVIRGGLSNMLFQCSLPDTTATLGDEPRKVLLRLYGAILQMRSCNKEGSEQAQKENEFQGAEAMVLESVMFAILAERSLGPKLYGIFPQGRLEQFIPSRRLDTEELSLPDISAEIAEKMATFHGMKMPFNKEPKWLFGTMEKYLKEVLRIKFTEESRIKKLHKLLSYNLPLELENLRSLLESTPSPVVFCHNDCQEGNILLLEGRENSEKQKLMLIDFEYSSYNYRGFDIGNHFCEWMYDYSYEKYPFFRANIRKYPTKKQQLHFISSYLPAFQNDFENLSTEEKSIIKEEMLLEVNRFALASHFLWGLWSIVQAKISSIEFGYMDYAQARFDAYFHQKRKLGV

Turning to “1,1′-(benzene-1,3-diylmethylene)bis[4-(4-chloro-N-methylanilino)pyridinium]dibromide [Compound 1]”, the IC50 (commonly the concentration that inhibits the measured activity by half) in the assay with HT-29 cells was 3300 nM; on Human ChoK (setting [1]) it was 5700 nM. In the assay on HT-29 cells, “1,1′-(biphenyl-3,3′-diylmethylene)bis[4-(3,5-dichloro-N-methylanilino)pyridinium]dibromide [Compound 4]” came in with an IC50 of 1800 nM. `CN(c1ccccc1)c1cc[n+](Cc2cccc(-c3cccc(C[n+]4ccc(N(C)c5ccccc5)cc4)c3)c2)cc1.[Br-].[Br-]` [Compound 2, 1,1′-(biphenyl-3,3′-diylmethylene)bis[4-(N-methylanilino)pyridinium]dibromide]: the values for the IC50 with HT-29 cells and at Human ChoK (setting [1]) were 2200 nM and 420 nM, respectively. Regarding `CN(c1ccc(Cl)cc1)c1cc[n+](Cc2cccc(-c3cccc(C[n+]4ccc(N(C)c5ccc(Cl)cc5)c5ccccc54)c3)c2)c2ccccc12.[Br-].[Br-]` [Compound 5, 1,1′-(biphenyl-3,3′-diylmethylene)bis[4-(4-chloro-N-methylanilino)quinolinium]dibromide], the IC50 in the assay on HT-29 cells amounted to 1600 nM. Consider `CN(c1ccc(Cl)cc1)c1cc[n+](Cc2cccc(-c3cccc(C[n+]4ccc(N(C)c5ccc(Cl)cc5)c5ccc(Cl)cc54)c3)c2)c2cc(Cl)ccc12` [Compound 6, 1,1′-(biphenyl-3,3′-diylmethylene)bis[4-(4-chloro-N-methylanilino)-7-chloroquinolinium]dibromide], for which the IC50 was determined as 1900 nM with HT-29 cells (Homo sapiens, 144 h) and 5700 nM at Human ChoK (setting [1]). The corresponding values for `CN(c1ccc(Cl)cc1)c1cc[n+](Cc2ccc(-c3ccc(C[n+]4ccc(N(C)c5ccc(Cl)cc5)c5ccc(Cl)cc54)cc3)cc2)c2cc(Cl)ccc12` [Compound 8, 1,1′-(biphenyl-4,4′-diylmethylene)bis[4-(4-chloro-N-methylanilino)-7-chloroquinolinium]dibromide] are 1200 nM and 11400 nM.

`CN(c1ccc(Cl)cc1)c1cc[n+](Cc2ccc(CCc3ccc(C[n+]4ccc(N(C)c5ccc(Cl)cc5)c5ccccc54)cc3)cc2)c2ccccc12` [Compound 9, 1,1′-[ethylenebis(benzene-1,4-diylmethylene)]bis[4-(4-chloro-N-methylanilino)quinolinium]dibromide]: the half-inhibitory concentration (IC50) in the assay on HT-29 cells (Homo sapiens, 144 h) was 700 nM; on Human ChoK (setting [1]) it was 4800 nM. Turning to `CN(c1ccc(Cl)cc1)c1cc[n+](Cc2ccc(CCc3ccc(C[n+]4ccc(N(C)c5ccc(Cl)cc5)c5ccc(Cl)cc54)cc3)cc2)c2cc(Cl)ccc12` [Compound 10, 1,1′-[ethylenebis(benzene-1,4-diylmethylene)]bis[4-(4-chloro-N-methylanilino)-7-chloroquinolinium]dibromide], the half-maximal inhibitory concentration (IC50) is 800 nM in the assay with HT-29 cells (Homo sapiens, 144 h) and 5700 nM at Human ChoK (setting [1]). As for `c1cc(C[n+]2ccc(N3CCCC3)cc2)cc(-c2cccc(C[n+]3ccc(N4CCCC4)cc3)c2)c1` [EC1, reference compound], the IC50 on Human ChoK (setting [1]) is 5800 nM. Regarding `c1cc(C[n+]2ccc(N3CCCCC3)cc2)cc(-c2cccc(C[n+]3ccc(N4CCCCC4)cc3)c2)c1` [EC2, reference compound], the half-inhibitory concentration (IC50) with HT-29 cells (Homo sapiens, 144 h) worked out at 1600 nM; on Human ChoK, 1900 nM. For the compound `CN(C)c1cc[n+](Cc2cccc(-c3cccc(C[n+]4ccc(N(C)C)c5ccc(Cl)cc54)c3)c2)c2cc(Cl)ccc12` [EC3, reference compound], the 50% inhibitory concentration (IC50) with HT-29 cells (Homo sapiens, 144 h) was 700 nM; on Human ChoK (setting [1]), 9600 nM.

Take `Clc1ccc2c(N3CCCC3)cc[n+](Cc3cccc(-c4cccc(C[n+]5ccc(N6CCCC6)c6ccc(Cl)cc65)c4)c3)c2c1` [EC4, reference compound]: the IC50 was determined as 400 nM in the assay with HT-29 cells (Homo sapiens, 144 h) and 1200 nM on Human ChoK (setting [1]). In the same order, the values of `Clc1ccc2c(N3CCCC3)cc[n+](Cc3ccc(CCc4ccc(C[n+]5ccc(N6CCCC6)c6ccc(Cl)cc65)cc4)cc3)c2c1` [EC5, reference compound] are 200 nM and 1000 nM. With `CN(C)c1cc[n+](Cc2ccc(CCCc3ccc(C[n+]4ccc(N(C)C)cc4)cc3)cc2)cc1` [EC6, reference compound], the IC50 in the assay on HT-29 cells (Homo sapiens, 144 h) was 2500 nM; at Human ChoK (setting [1]) it was 22000 nM.
